Results on twelve molecules are retold here after patent publication US20250387504A1, “ANTIBODY-DRUG CONJUGATES OF ANTINEOPLASTIC COMPOUNDS AND METHODS OF USE THEREOF” (Novartis AG, priority 2022, published 2025).

The test system of one data set is WSU-DLCL2. Kind of data set: CellTiter-Glo proliferation assay, CD48 MCL-1 and BCL-2 ADCs (Example 4). The conditions noted are these: Homo sapiens, WSUDLCL2, 120 h, read-out: WSU-DLCL2 IC50 (nM). (In ATP-based viability assays light output follows the ATP content of the culture.)
The subject of a further data set is KE-97. Described as above. The conditions noted are these: KE-97, 120 h, read-out: Ke97 IC50 (nM).
In the next data set the test system is KHM-1B. Described as above. The conditions noted are these: 120 h, read-out: KHM-1B IC50 (nM).
The next data set has as its system RL. Described as above. The conditions noted are these: Homo sapiens, 120 h, read-out: RL IC50 (nM).
For data set [1], the system named is KMS-27. The description is as above. As to conditions: KMS-27, 120 h, read-out: KMS-27 IC50 (nM).
Protocol: (§3) The ability of the MCL-1 and BCL-2 antibody drug conjugates to inhibit cell proliferation and survival was assessed using the Promega CellTiter-Glo® proliferation assay.
(§4) Cell lines were cultured in media that is optimal for their growth at 5% CO2, 37° C. in a tissue culture incubator. Prior to seeding for the proliferation assay, the cells were split at least 2 days before the assay to ensure optimal growth density. On the day of seeding, cell viability and cell density were determined using a cell counter (Vi-Cell XR Cell Viability Analyzer, Beckman Coulter). […] Cells were seeded at a density of 1,000 cells per well in 45 μL of standard growth media. Plates were incubated at 5% CO2, 37° C. overnight in a tissue culture incubator. The next day, free MCL-1 and BCL-2 payloads, targeting MCL-1 and BCL-2 ADCs, and non-targeting isotype ADCs free MCL-1 and BCL-2 payloads, were prepared at 10× in standard growth media. […] Each drug concentration was tested in quadruplets. Plates were incubated at 5% CO2, 37° C. for 5 days in a tissue culture incubator, after which cell viability was assessed through the addition of 25 L μof CellTiter Glo® (Promega, cat #G7573), a reagent which lyses cells and measures total adenosine triphosphate (ATP) content. Plates were incubated at room temperature for 10 minutes to stabilize luminescent signals prior to reading using a luminescence reader (EnVision Multilabel Plate Reader, PerkinElmer). To evaluate the effect of the drug treatments, luminescent counts from wells containing untreated cells (100% viability) were used to normalize treated samples. […] IC50 and Amax values were extrapolated from the resultant curves.
The next data set has as its system AMO-1. Described as above. As to conditions: Homo sapiens, AMO1, 120 h, read-out: AMO-1 IC50 (nM).
For the next data set, the system named is MOLP-8. Described as above. As to conditions: Homo sapiens, MOLP-8, 120 h, read-out: MOLP-8 IC50 (nM).
Another data set concerns KMS-21-BM. The description is as above. The conditions noted are these: 120 h, read-out: KMS-21-BM IC50 (nM).
The test system of the next data set is NCI-H929. The description is as above. The conditions noted are these: Homo sapiens, NCI-H929, 120 h, read-out: NCI-H929 IC50 (nM).
In data set [2] the test system is hematological malignancies and solid tumors. As to conditions: several hematological malignancies and solid tumors; cited from earlier work.
A further data set concerns lymphoid malignancies. As to conditions: cited from earlier work.
The test system of another data set is lymphocyte proliferation. As to conditions: in vitro; cited from earlier work.
A further data set deals with allogeneic T-cell. The conditions noted are these: in vitro; cited from earlier work.
Data set [3] deals with allogeneic T- and B-cell responses. As to conditions: after skin transplantation; cited from earlier work.
Data set [4] deals with animal models of arthritis and lupus. The conditions noted are these: mice; cited from earlier work.
A further data set deals with EOL-1. Kind of data set: CellTiter-Glo proliferation assay, CD74 MCL-1/BCL-xL and BCL-xL ADCs (Example 6). The format is cell-based. The conditions noted are these: Table 4 CD74 ADC, 5 days; for IC50: Homo sapiens, EOL1, 120 h, 0.01-600 nM. As for the experimental part: (§1) The CD74 MCL-li and BCL-xLi antibody drug conjugates and the CD74 BCL-xL antibody drug conjugates were tested against two endogenous cancer cell lines. • Kasumi-6: ATCC No. CRL-2775 cultured in RPMI 1640 medium with 2 mM L-glutamine adjusted to contain 1.5 g/L sodium bicarbonate, 4.5 g/L glucose, 10 mMv HEPES, and 1.0 mM sodium pyruvate supplemented with 2 ng/ml human recombinant granulocyte macrophage colony stimulating factor (GM-CSF) and 20% FBS • EOL-1: DSMZ No. ACC-386 cultured in RPMI-1640+10% FBS
(§2) The next day, free MCL-1 payload (P1), free BCL-xL payload (P5 and P6) and targeting MCL-1 and BCL-xL ADCs and targeting BCL-xL ADCs were prepared at 10X in standard growth media. […] Each drug concentration was tested in quadruplets.

In the next data set the test system is Kasumi-6. The description is as above. The format is cell-based. As to conditions: Table 4 CD74 ADC, 5 days; for IC50: 120 h, 0.01-600 nM. As for the experimental part:
as §1, §2

Data set [5] deals with KMS-27. The experiment in a line: CellTiter-Glo proliferation assay, CD48 MCL-1/BCL-xL and BCL-xL ADCs (Example 6). The format is cell-based. The conditions noted are these: Table 3 CD48 ADC, 5 days; for IC50: KMS-27, 120 h, 0.01-600 nM. Here is the method:
as §2

In data set [6] the test system is T-ALL (T-cell Acute Lymphoblastic Leukemia) and different types of solid tumors. As to conditions: cited from earlier work.
A further data set concerns the target TROP2 (human) (UniProt P09758). Kind of data set: cell-based or functional assay.
A further data set addresses HER2 (UniProt P04626). Kind of data set: cell-based or functional assay.

TROP2 (human), sequence (P09758 27-323): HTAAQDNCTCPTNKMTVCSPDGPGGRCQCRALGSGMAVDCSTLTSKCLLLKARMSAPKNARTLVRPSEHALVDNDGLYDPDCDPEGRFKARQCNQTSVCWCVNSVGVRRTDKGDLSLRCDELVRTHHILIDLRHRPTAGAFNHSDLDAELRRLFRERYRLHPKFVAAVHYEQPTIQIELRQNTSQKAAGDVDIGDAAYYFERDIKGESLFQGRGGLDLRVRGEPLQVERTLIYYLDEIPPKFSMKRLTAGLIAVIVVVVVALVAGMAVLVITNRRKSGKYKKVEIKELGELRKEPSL
Protocol for AMO-1: as §3, §4
Protocol for KE-97: as §3, §4
Protocol for KHM-1B: as §3, §4
Protocol for KMS-21-BM: as §3, §4
Protocol for MOLP-8: as §3, §4
Protocol for NCI-H929: as §3, §4
Protocol for RL: as §3, §4
Protocol for WSU-DLCL2: as §3, §4

By IC50 is commonly meant the concentration that gives 50% inhibition. For `Cc1c(N(C(=O)c2cc(-c3cc4c(cc3C(=O)N3Cc5ccccc5C[C@H]3C)CN(C(=O)Cc3ccc(OCCN5CCOCC5)cc3)CC4)n(C)c2C)c2ccc(O)cc2)cc(C#N)n1C` [P4, N-(5-cyano-1,2-dimethyl-1H-pyrrol-3-yl)-N-(4-hydroxyphenyl)-1,2-dimethyl-5-{7-[(3R)-3-methyl-1,2,3,4-tetrahydroisoquinoline-2-carbonyl]-2-(2-{4-[2-(morpholin-4-yl)ethoxy]phenyl}acetyl)-1,2,3,4-tetrahydroisoquinolin-6-yl}-1H-pyrrole-3-carboxamide], the half-maximal inhibitory concentration (IC50) was 4.17 nM in the data set with WSU-DLCL2; over 250 nM in the data set with KE-97; over 10 nM in the data set with KHM-1B; 1.26 nM in the data set on RL; 0.999 nM with KMS-27 [1]; over 250 nM in the data set on AMO-1. Further, the IC50 with MOLP-8 is over 250 nM; in the data set on KMS-21-BM, over 100 nM; in the data set on NCI-H929, over 250 nM.

As for `Cc1c(C(=O)N(c2ccc(O)cc2)c2cnn(C(F)F)c2)cc(-c2cc3c(cc2C(=O)N2Cc4ccccc4C[C@H]2C)CN(C(=O)Cc2ccc(OCCN4CCOCC4)cc2)CC3)n1C` [P3], the IC50 with WSU-DLCL2 is 5.41 nM; in the data set with KE-97, over 250 nM; with KHM-1B it was over 10 nM; in the data set on RL, 11.8 nM; in the data set with KMS-27 [1], 3.91 nM; with AMO-1, over 250 nM. For the same molecule, the IC50 in the data set on MOLP-8 is over 250 nM; in the data set with KMS-21-BM, over 100 nM; in the data set on NCI-H929 it was over 250 nM.

Consider `Cc1c(N(C(=O)c2cc(-c3cc(Cl)ccc3C(=O)N3Cc4ccccc4C[C@H]3CCCN(C)C)n(C)c2C)c2ccc(O)cc2)cc(C#N)n1C` [P2, 5-[5-chloro-2-[(3R)-3-[3-(dimethylamino)propyl]-3,4-dihydro-1H-isoquinoline-2-carbonyl]phenyl]-N-(5-cyano-1,2-dimethyl-pyrrol-3-yl)-N-(4-hydroxyphenyl)-1,2-dimethyl-pyrrole-3-carboxamide], for which the IC50 in the data set with WSU-DLCL2 was 3.77 nM; in the data set on KE-97 it was over 250 nM; in the data set with KHM-1B, over 10 nM; in the data set on RL it was 6.26 nM; with KMS-27 [1] it was 0.316 nM; in the data set with AMO-1 it was over 250 nM. Also, the half-inhibitory concentration (IC50) in the data set on MOLP-8 is over 250 nM; in the data set with KMS-21-BM, over 100 nM; in the data set on NCI-H929, over 250 nM.

Turning to `CC1(C)CCC(c2ccc(Cl)cc2)=C(CN2CCN(c3ccc(C(=O)NS(=O)(=O)c4ccc(N[C@H](CCN5CCOCC5)CSc5ccccc5)c(S(=O)(=O)C(F)(F)F)c4)cc3)CC2)C1` [ABT-263, navitoclax], in data set [2], the “activity in pre-clinical models” value is “shown activity”. Also, the “antitumor activity in clinical studies” value in the data set with lymphoid malignancies is listed as “objective antitumor activity”.

On to `CN(C)CC[C@H](CSc1ccccc1)Nc1ccc(S(=O)(=O)NC(=O)c2ccc(N3CCN(Cc4ccccc4-c4ccc(Cl)cc4)CC3)cc2)cc1[N+](=O)[O-]` [ABT-737], for which the “inhibition of lymphocyte proliferation” value in the data set on lymphocyte proliferation is reported as “potent inhibition”. In addition, the “allogeneic T-cell activation, proliferation, and cytotoxicity” value with allogeneic T-cell is listed as “prevented”. Moreover, in data set [3], the “allogeneic T- and B-cell responses” value is recorded as “inhibited”. The disease severity entry in [4] is on record as “significant decrease in disease severity”.

On to `Cc1c(Nc2nc3ccccc3s2)nnc2c1CCCN2c1nc(C(=O)O)c(CCCOc2ccc(C#CCN(C)C)cc2F)s1` [P6, 2-[3-(1,3-Benzothiazol-2-ylamino)-4-methyl-6,7-dihydro-SH-pyrido[2,3-c]pyridazin-8-yl]-5-[3-[4-[3-(dimethylamino)prop-1-ynyl]-2-fluoro-phenoxy]propyl]thiazole-4-carboxylic acid], for which the figures for the IC50 in the data set on EOL-1, in the data set with Kasumi-6 and with KMS-27 [5] were under 10 nM, under 10 nM and 7.89 nM, respectively. For the same molecule, the “KMS-27 Amax (Span)” value in the data set on KMS-27 [5] is 93.7.

With `CN(C)CC#Cc1ccc(OCCCc2sc(N3CCc4cccc(C(=O)Nc5nc6ccccc6s5)c4C3)nc2C(=O)O)c(F)c1` [A-1155463], in data set [6], the “in vivo activity in pre-clinical models” value was “in vivo activity”.

Take `Cc1c(Nc2nc3ccccc3s2)nnc2c1CCCN2c1ccc(-c2cnn(CC34CC5(C)CC(C)(C3)CC(OCCNCCCO)(C5)C4)c2C)c(C(=O)O)n1` [P5, 6-[3-(1,3-benzothiazol-2-ylamino)-4-methyl-6,7-dihydro-5H-pyrido[2,3-c]pyridazin-8-yl]-3-[1-[[3-[2-(3-hydroxypropylamino)ethoxy]-5,7-dimethyl-1-adamantyl]methyl]-5-methyl-pyrazol-4-yl]pyridine-2-carboxylic acid]: in the data set on EOL-1, the half-maximal inhibitory concentration (IC50) was 0.488 nM and the “EOL-1 Amax (Span)” value turned out to be 94.9. Moreover, in the data set with Kasumi-6, the half-inhibitory concentration (IC50) turned out to be 11.9 nM and the “Kasumi-6 Amax (Span)” value is listed as 84.5. Further, the IC50 in the data set with KMS-27 [5] is under 5 nM.

As to `Cc1c(-c2ccc(N3CCc4cccc(C(=O)Nc5nc6ccccc6s5)c4C3)nc2C(=O)O)cnn1CC12CC3CC(CC(C3)C1)C2` [A-1331852], the “in vivo activity in pre-clinical models” value in [6] is “in vivo activity”.

B1: Datopotamab-P5-L12-P7 (antibody, INN chains, looked up, V domains shown)
VH: QVQLVQSGAEVKKPGASVKVSCKASGYTFTTAGMQWVRQAPGQGLEWMGWINTHSGVPKYAEDFKGRVTISADTSTSTAYLQLSSLKSEDTAVYYCARSGFGSSYWYFDVWGQGTLVTVSS
VL: DIQMTQSPSSLSASVGDRVTITCKASQDVSTAVAWYQQKPGKAPKLLIYSASYRYTGVPSRFSGSGSGTDFTLTISSLQPEDFAVYYCQQHYITPLTFGQGTKLEIK
modifications: BCLxLi/TOPOi dual drug-linker P5-L12-P7
B1: the IC50 (nM), NCI-H441 in the data set with TROP2 (human) stood at 0.692 nM.

B2: Datopotamab-mono-L3-P8 (antibody, INN chains, looked up, V domains shown)
VH: B1 VH
VL: B1 VL
modifications: TOPOi mono-loaded drug-linker L3-P8
In turn, B2 showed an IC50 (nM), NCI-H441 in the data set with TROP2 (human) of under 5 nM.

B3: Disitamab-P5-L12-P7 (antibody, INN chains, looked up, V domains shown)
VH: EVQLVQSGAEVKKPGATVKISCKVSGYTFTDYYIHWVQQAPGKGLEWMGRVNPDHGDSYYNQKFKDKATITADKSTDTAYMELSSLRSEDTAVYFCARNYLFDHWGQGTLVTVSS
VL: DIQMTQSPSSVSASVGDRVTITCKASQDVGTAVAWYQQKPGKAPKLLIYWASIRHTGVPSRFSGSGSGTDFTLTISSLQPEDFATYYCHQFATYTFGGGTKVEIK
modifications: BCLxLi/TOPOi dual payload P5-L12-P7
Turning to B3, the IC50 (nM), inhibition of cell proliferation and survival (CellTiter-Glo), UACC-812 cells with HER2 came out at 0.191 nM.
